Measured values: patent US12257243B2, “5-hydroxy-7-oxabicyclo[2.2.1]heptane-2-carboxamide derivatives for inducing chondrogenesis for treating joint damage” (NOVARTIS AG, priority 2018, dated 2025)
Like-named read-outs stand apart in the source and are kept apart here.

Test system: ALP in normal human articular chondrocytes (NHACs)
Assay: Alkaline Phosphatase (ALP) activity assay (staining and quantitation) in NHACs, prevention of chondrocyte hypertrophy
Format: cell-based
Conditions: human IL-1 beta 10 ng/mL, 12 days; for IC50: Fast Blue RR staining, high content imaging, read-out: ALP in NHAC IC50; for Emax / ALP in NHAC (% Efficacy): value in parentheses; for Emax: read-out: ALP in NHAC (% Efficacy)
Method: The compounds of the present invention were evaluated in the Alkaline Phosphatase (ALP) activity assay to determine the ability of the compounds to prevent chondrocyte hypertrophy in normal human articular chondrocytes (NHACs).
Normal human articular chondrocytes (NHACs) were purchased from PromoCell (Heidelberg, Germany) and grown in Chondrocyte Growth Medium (CGM; Lonza, Walkersville, Md.).
NHACs were expanded in Chondrocyte Growth Medium (CGM) from Lonza until they reached a 60-80% confluency. To initiate differentiation, 7,500 cells were plated/well with indicated test compound dose in 384-well Cell Carrier Ultra plates (Perkin Elmer) with DMEM (SH30022—HyClone) containing 10% FBS (35-015-CV—Corning), 1% Pen/Strep antibiotics (SV30010—HyClone), and 1% Normocin (50 mg/mL—InvivoGen). Cells with test compounds were incubated at 37° C., 5% CO2 for 5 hours and then added human IL-1 beta (AF-200-1B—Peprotech) to each well at a final concentration of 10 ng/mL and incubated at 37° C., 5% CO2 for 12 days.
To detect the presence of hypertrophic cells, NHACs were fixed with 4% paraformaldehyde and Hoechst 33342 (Invitrogen) dye for 30 minutes, rinsed in PBS, then stained with Fast Blue RR Salt (F0500—Sigma) with Naphthol AS-MX Phosphate Alkaline Solution, 0.25% (855—Sigma-Aldrich).
The staining was imaged by fluorescent microscopy, using the 561 nm wavelength, and/or quantified by high content imaging with the Image press Confocal (Molecular Devices, Sunnyvale, Calif.). Data analyses were performed with a customized multiwavelength cell-scoring application.

Row | SMILES | IC50 (Chondrocyte, 288 h) [µM] | Emax (Chondrocyte, 288 h) [%] | IC50 [µM] | ALP in NHAC (% Efficacy) [%]
1 | Cn1nc(C(F)(F)F)cc1[C@H]1[C@H]2O[C@H](C[C@@H]2O)[C@@H]1C(=O)Nc1cccc(C(F)(F)F)c1 (racemic) [Example 61, rac-(1R,2R,3S,4R,5S)-5-hydroxy-3-(1-methyl-3-(trifluoromethyl)-1H-pyrazol-5-yl)-N-(3-(trifluoromethyl)phenyl)-7-oxabicyclo[2.2.1]heptane-2-carboxamide] | 21 | 46 |  | 
2 | COc1cc([C@@H]2[C@@H]3O[C@@H](C[C@H]3O)[C@H]2C(=O)Nc2cc(C(F)(F)F)ccc2C#N)ccn1 (single isomer, unassigned) [Example 78b, (1R,2R,3S,4R,5)-N-(2-cyano-5-(trifluoromethyl)phenyl)-5-hydroxy-3-(2-methoxypyridin-4-yl)-7-oxabicyclo[2.2.1]heptane-2-carboxamide or (1S,2S,3R,4S,5R)—N-(2-cyano-5-(trifluoromethyl)phenyl)-5-hydroxy-3-(2-methoxypyridin-4-yl)-7-oxabicyclo[2.2.1]heptane-2-carboxamide] |  |  | 1.4 | 88
3 | Cn1cc([C@H]2[C@H]3O[C@H](C[C@@H]3O)[C@@H]2C(=O)Nc2cc(C(F)(F)F)cc(C(F)(F)F)c2)c(C(F)(F)F)n1 (racemic) [Example 50, rac-(1R,2R,3S,4R,5S)—N-(3,5-bis(trifluoromethyl)phenyl)-5-hydroxy-3-(1-methyl-3-(trifluoromethyl)-1H-pyrazol-4-yl)-7-oxabicyclo[2.2.1]heptane-2-carboxamide] | 2.3 | 101 |  | 
4 | N#Cc1ccc(C(F)(F)F)cc1NC(=O)[C@@H]1[C@@H](c2cccc(C(F)(F)F)c2)[C@H]2O[C@@H]1C[C@@H]2O (single isomer, unassigned) [Example 48b, (1R,2R,3S,4R,5S)—N-(2-cyano-5-(trifluoromethyl)phenyl)-5-hydroxy-3-(3-(trifluoromethyl)phenyl)-7-oxabicyclo[2.2.1]heptane-2-carboxamide or (1S,2S,3R,4S,5R)—N-(2-cyano-5-(trifluoromethyl)phenyl)-5-hydroxy-3-(3-(trifluoromethyl)phenyl)-7-oxabicyclo[2.2.1]heptane-2-carboxamide] |  |  | 1.9 | 98
5 | N#Cc1cc(NC(=O)[C@@H]2[C@@H](c3cccc(C(F)(F)F)c3)[C@H]3O[C@@H]2C[C@@H]3O)cc(C(F)(F)F)c1 (racemic) [Example 47, rac-(1R,2R,3S,4R,5S)—N-(3-cyano-5-(trifluoromethyl)phenyl)-5-hydroxy-3-(3-(trifluoromethyl)phenyl)-7-oxabicyclo[2.2.1]heptane-2-carboxamide] | 5.5 | 87 |  | 
6 | O=C(Nc1cccc(C(F)(F)F)c1)[C@@H]1[C@@H](c2ccnc(F)c2)[C@H]2O[C@@H]1C[C@@H]2O (racemic) [Example 80, rac-(1R 2R,3S,4R,5S)-3-(2-fluoropyridin-4-yl)-5-hydroxy-N-(3-(trifluoromethyl)phenyl)-7-oxabicyclo[2.2.1]heptane-2-carboxamide] | 23 | 34 |  | 
7 | Cn1cc([C@H]2[C@H]3O[C@H](C[C@@H]3O)[C@@H]2C(=O)Nc2ccc(F)c(C(F)(F)F)c2)c(C(F)(F)F)n1 (racemic) [Example 43] | 7.9 | 59 |  | 
8 | Cn1cc([C@H]2[C@H]3O[C@H](C[C@@H]3O)[C@@H]2C(=O)Nc2ccc(C#N)c(C(F)(F)F)c2)c(C(F)(F)F)n1 (racemic) [Example 51, rac-(1R,2R,3S,4R,5S)—N-(4-cyano-3-(trifluoromethyl)phenyl)-5-hydroxy-3-(1-methyl-3-(trifluoromethyl-1H-pyrazol-4-yl)-7-oxabicyclo[2.2.1]heptane-2-carboxamide] | > 30 | 34 |  | 
